Measurements: US10208077B1, “Aesculin lipoic acid ester with antioxidant activity and a method of preparing the same” (SHAANXI UNIVERSITY OF SCIENCE AND TECHNOLOGY, priority 2018, dated 2019)

Test: DPPH radical scavenging activity assay
Type: biochemical
Settings: for Scavenging activity (%): 0.2 mmol/L DPPH, 30 min, room temperature, dark, absorbance at 517 nm
Excerpt: The Antioxidant Activity of the Aesculin Lipoic Acid Ester Measured by a DPPH Radical Scavenging Activity Assay
2,2-Diphenyl-1-picryl hydrazyl (DPPH) is an organic compound composed of a stable organic radical. In the DPPH molecule, due to the presence of multiple electron-withdrawing —NO2 and large π bonds of the benzene ring, nitrogen free radical is stabilized. Its methanol solution is purple and has a maximum absorption peak at 517 nm. After the addition of an antioxidant, DPPH captures an electron to be paired with the free electron, and the purple fades and turns into a yellow substance. The absorption at 517 nm disappears, and the degree of fading is quantitatively related to the number of electrons it captures. Based on this principle, a spectrophotometer is used to detect the change of the absorbance of the DPPH radical and the sample solution, and the ability of the sample to provide hydrogen atoms and scavenge free radicals can be measured.
Preparation of DPPH solution: measuring exact amount of 2,2-diphenyl-1-picryl hydrazyl (DPPH) and dissolving in methanol to prepare a 0.2 mmol/L DPPH solution, stored at 0° C. in dark.
Preparation of sample solutions: the aesculin lipoic acid ester was diluted with a concentration gradient of 1.82, 7.28, 24.2, 48.4, 72.6, 96.8, 242, 484, 726, 968 ppm with acetonitrile to prepare sample solutions to be tested. Control samples (vitamin C, aesculin, lipoic acid, a mixture of aesculin and lipoic acid) were diluted with methanol in the same manner in the same concentration gradient to obtain the corresponding four groups of control solutions.
Measuring the Scavenging Activity of the Sample Solutions:
2 mL of the sample solutions at each concentration gradient was taken, 2 mL 0.2 mmol/L DPPH solution was added, the mixture was mixed and reacted at room temperature in dark for 30 minutes, and methanol was then added to adjust final volume. The absorbance Ai was measured at 517 nm. 2 mL control solution and 2 mL methanol were mixed, and the absorbance Aj was measured. 2 mL DPPH solution and 2 mL methanol were mixed, and the absorbance A0 was measured. The scavenging activity of the sample solution and control solutions is calculated according to the following calculation formula. Scavenging activity (%)=100×[1−(Ai−Aj)/A0]

| Structure (SMILES) | Scavenging activity (%) (1.82 ppm) | Scavenging activity (%) (7.28 ppm) | Scavenging activity (%) (24.2 ppm) | Scavenging activity (%) (48.4 ppm) | Scavenging activity (%) (72.6 ppm) | Scavenging activity (%) (96.8 ppm) | Scavenging activity (%) (242 ppm) | Scavenging activity (%) (484 ppm) | Scavenging activity (%) (726 ppm) | Scavenging activity (%) (968 ppm) | free radical clearance rate (achieved at a lower concentration than aesculin, lipoic acid and their mixture) |
| --- | --- | --- | --- | --- | --- | --- | --- | --- | --- | --- | --- |
| O=C(O)CCCC[C@@H]1CCSS1 (racemic) [Lipoic acid] | 0.86 | 1.14 | 1.43 | 1.62 | 2.47 | 3.81 | 8.47 | 16.65 | 20.17 | 21.88 |  |
| O=c1ccc2cc(O[C@@H]3O[C@H](CO)[C@@H](O)[C@H](O)[C@H]3O)c(O)cc2o1 [Aesculin] | 3.44 | 3.53 | 5.12 | 5.56 | 8.12 | 10.77 | 24.01 | 42.54 | 58.34 | 70.70 |  |
| O=C(CCCC[C@@H]1CCSS1)OCC1OC(Oc2cc3ccc(=O)oc3cc2O)C(O)C(O)C1O (some centres unmarked) [Aesculin lipoic acid ester, aesculin lipoic acid ester] | 30.93 | 42.73 | 57.70 | 72.90 | 83.5 | 89.73 | 95.30 | 96.50 | 96.83 | 96.94 | more than 90% |
| O=C1O[C@H]([C@@H](O)CO)C(O)=C1O [Vitamin C, vitamin C] | 23.86 | 72.45 | 96.70 | 96.99 | 97.58 | 97.77 | 97.77 | 98.06 | 98.06 | 98.06 |  |
